Experimental data: patent US10350152B2, “Skin whitening composition, and method for screening for materials having skin whitening effect” (AMOREPACIFIC CORPORATION, priority 2015, dated 2019)

Columns and labels:
[1] = tested on: Normal human melanocytes; test: Amount of secretion of exosomes from UVB-irradiated melanocytes (exosome marker CD81, western blot); type: cell-based; conditions: 10 μM, treated for 12 hours before UVB exposure (20 mJ/cm^2), cultured 24 hours
Method: Normal human melanocytes (Cascade Biologics, Portland, Oreg., USA) were kept in M-254 medium (Cascade) containing a human melanocyte growth supplement (Cascade). GW4869 (Santa Cruz Biotechnology, Santa Cruz, Calif., USA) and pifithrin-μ (Sigma, St. Louis, Mo., USA) were dissolved in DMSO for use. For isolation of exosomes, confluent melanocytes were washed with PBS and cultured in M-254 for 48 hours. Conditioned medium was collected and centrifuged at 500×g for 10 minutes, 3,000×g for 20 minutes, and 100,000×g for 2 hours. The resultant exosome-containing pellet was resuspended in PBS and stored at −80° C. Also, conditioned medium was purified by filtration through a 0.45 μm pore filter (Millipore, Billerica, Mass., USA) and concentrated using a 100 kDa cut-off spin column (Millipore). Exosomes were isolated using the ExoQuick-TC kit (SBI, San Jose, Calif., USA) according to the manufacturer's instructions. 20 μl of isolated exosomes were analyzed by western blot and silver staining. Cells or isolated exosomes were lysed with lysis buffer (1% NP-40, 0.05 M Tris-HCl, pH 7.5, 0.15 M NaCl, and 0.01 M MgCl2) containing protease inhibitors (Sigma). Protein concentrations were determined using BCA assays, and samples were […] by SDS-PAGE, transferred to a PVDF membrane, and probed with antibodies against CD81 (SBI). […]

[2] = tested on: melanocytes; test: Viability of melanocytes cultured with exosomes (crystal violet cytotoxicity test); type: cell-based, human; conditions: exosomes from melanocytes treated with ultraviolet rays together with inhibitor; recipient melanocytes irradiated with UVB 20 mJ/cm^2, cultured 3 days
Method: Normal human melanocytes (Cascade Biologics, Portland, Oreg., USA) were kept in M-254 medium (Cascade) containing a human melanocyte growth supplement (Cascade). GW4869 (Santa Cruz Biotechnology, Santa Cruz, Calif., USA) and pifithrin-μ (Sigma, St. Louis, Mo., USA) were dissolved in DMSO for use. Melanocytes were seeded in a 6-well plate at a density of 1×10^4 cells/well. The next day, 10 μl of exosomes isolated from the same number of cells were treated. Cells were fixed with 4% formaldehyde in PBS for 15 minutes, washed with PBS and stained with 0.1% crystal violet for 20 minutes. After washing with PBS, the cells were dried and lysed with 10% acetic acid. The absorbance was measured at 590 nm using a spectrophotometer. Each of the exosomes obtained from UVB-untreated melanocytes, UVB-treated melanocytes, or UVB- and GW4869-treated melanocytes, together with melanocytes, were irradiated with UVB (20 mJ/cm^2), and cultured for 3 days.

NS(=O)(=O)C#Cc1ccccc1 [pifithrin-μ]
amount of expression of the exosome marker CD81 [1]: decreased
effect of exosomes from UVB- and inhibitor-treated melanocytes on viability of ultraviolet-irradiated melanocytes [2]: reduced effect in the enhancement of the viability of melanocytes

Cl.Cl.O=C(/C=C/c1ccc(/C=C/C(=O)Nc2ccc(C3=NCCN3)cc2)cc1)Nc1ccc(C2=NCCN2)cc1 [GW4869]
amount of expression of the exosome marker CD81 [1]: decreased
effect of exosomes from UVB- and inhibitor-treated melanocytes on viability of ultraviolet-irradiated melanocytes [2]: reduced effect in the enhancement of the viability of melanocytes
